Test results as given in article PMC4150021 (Nature, 2014).

Tested on: PANC1 cells
Test: Colony formation / growth, PANC1
Assay type: cell-based, human
Conditions: data not shown

For `Nc1ncnc2nc(-c3ccc(N4CCOCC4)nc3)cc(-c3cccc(Br)c3)c12` [ABT-702], the “growth impairment of PANC1 cells” value was “did not observe any growth impairment”.
